# Values of other authors, collected in US20190008798A1, “Coenzyme Q10 in the preventive treatment of type 2 diabetes” (Pharma Nord ApS, priority 2017, published 2019).
# What was measured:
# [1] = test system: adipose tissue; details: mice
smiles,measurement,setting,value
"COC1=C(OC)C(=O)C(C/C=C(\C)CC/C=C(\C)CC/C=C(\C)CC/C=C(\C)CC/C=C(\C)CC/C=C(\C)CC/C=C(\C)CC/C=C(\C)CC/C=C(\C)CCC=C(C)C)=C(C)C1=O [Q10, ubidecarenone]",insulin sensitivity in the adipose tissue,[1],improves insulin sensitivity
same,mortality in subjects with cardiac failure,,decrease mortality
